# Results taken from patent US7601686B2, “Hepatitis C virus inhibitors” (Bristol-Myers Squibb Company, priority 2005, dated 2009).
# Where two headings read alike, the source gives them in different places.
# Tests used:
# [1] = test system: human pancreatic chymotrypsin; assay: Specificity assay, chymotrypsin; assay type: biochemical; conditions: 2 h enzyme-inhibitor pre-incubation; read-out: Chymotrypsin activity in the specificity assays
# Procedure: (§1) The specificities of compounds of the present disclosure were determined against a variety of serine proteases: human neutrophil elastase (HNE), porcine pancreatic elastase (PPE) and human pancreatic chymotrypsin and one cysteine protease: human liver cathepsin B. In all cases a 96-well plate format protocol using colorimetric p-nitroaniline (pNA) substrate specific for each enzyme was used as described previously (PCT Patent Application No. WO 00/09543) with some modifications to the serine protease assays. All enzymes were purchased from Sigma while the substrates were from Bachem.
# (§2) Each assay included a 2 h enzyme-inhibitor pre-incubation at room temperature followed by addition of substrate and hydrolysis to ˜30% conversion as measured on a Spectramax Pro microplate reader. Compound concentrations varied from 100 to 0.4 μM depending on their potency.
# (§3) The final conditions for each assay were the same as those described in WO 03/099274, page 623.
# (§4) The percentage of inhibition was calculated using the formula: [1−((UVinh−UVblank)/(UVctl−UVblank))]×100
# (§5) A non-linear curve fit was applied to the inhibition-concentration data, and the 50% effective concentration (IC50) was calculated by the use of Excel XLfit software.
# [2] = molecular target: T1, human liver cathepsin B (Homo sapiens, UniProt P07858); assay: Specificity assay, cathepsin B; assay type: biochemical; conditions: 2 h enzyme-inhibitor pre-incubation; read-out: Cathepsin B activity in the specificity assays
# T1 construct: purchased Sigma; host or cells: human liver
# Procedure: as §1, §2, §3, §4, §5
# [3] = molecular target: T2, HCV NS3/4A protease complex, H77 strain (Hepatitis C virus genotype 1a, UniProt P27958, C1454S/C1711G); assay: FRET peptide assay to monitor HCV NS3/4A proteolytic activity (H77 strain); assay type: biochemical
# T2 construct: recombinant HCV NS3/4A protease complex (amino acids 1027 to 1711) for these strains; inferred from pET21b vector and Ni-NTA purification; made in house; host or cells: Escherichia coli BL21 (DE3), pET21b
# Text: Generation of Recombinant HCV NS3/4A Protease Complex
# HCV NS3 protease complexes, derived from the BMS strain, H77 strain or J4L6S strain, were generated, as described below. These purified recombinant proteins were generated for use in a homogeneous assay (see below) to provide an indication of how effective compounds of the present disclosure would be in inhibiting HCV NS3 proteolytic activity.
# Serum from an HCV-infected patient was obtained from Dr. T. Wright, San Francisco Hospital. An engineered full-length cDNA (compliment deoxyribonucleic acid) template of the HCV genome (BMS strain) was constructed from DNA fragments obtained by reverse transcription-PCR (RT-PCR) of serum RNA (ribonucleic acid) and using primers selected on the basis of homology between other genotype 1a strains. From the determination of the entire genome sequence, a genotype 1a was assigned to the HCV isolate according to the classification of Simmonds et al. (See P Simmonds, K A Rose, S Graham, S W Chan, F McOmish, B C Dow, E A Follett, P L Yap and H Marsden, J. Clin. Microbiol., 31(6), 1493-1503 (1993)). […]
# [4] = molecular target: T3, HCV NS3/4A protease complex, BMS strain (UniProt P27958, species not given/STRAIN_BMS); assay: FRET peptide assay to monitor HCV NS3/4A proteolytic activity (BMS strain); assay type: biochemical, Hepatitis C virus (genotype 1a); conditions: NS3/4A BMS strain, enzyme assay
# T3 construct: DNA encoding the recombinant HCV NS3/4A protease complex (amino acids 1027 to 1711) for these strains [H77 and J4L6S]; fused on or other part: For the H77 and J4L6S constructs, a three-lysine solubilising tail at the NS4A C-terminus and a Ni-NTA-purifiable tag from pET21b
# Method in brief: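 Recombinant NS3/4A complexes (aa 1027–1711) with C-terminal three-lysine tail, C1711G and C1454S, expressed in E. coli BL21(DE3) (0.5 mM IPTG, 22 h, 20°C) for H77 (1a) and J4L6S (1b); BMS strain is genotype 1a patient isolate. Purified by Ni-NTA and Superdex-S200; proteolysis monitored by FRET peptide cleavage.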
# T3 sequence (P27958 1027-1657, stated change not applied, one chain of several): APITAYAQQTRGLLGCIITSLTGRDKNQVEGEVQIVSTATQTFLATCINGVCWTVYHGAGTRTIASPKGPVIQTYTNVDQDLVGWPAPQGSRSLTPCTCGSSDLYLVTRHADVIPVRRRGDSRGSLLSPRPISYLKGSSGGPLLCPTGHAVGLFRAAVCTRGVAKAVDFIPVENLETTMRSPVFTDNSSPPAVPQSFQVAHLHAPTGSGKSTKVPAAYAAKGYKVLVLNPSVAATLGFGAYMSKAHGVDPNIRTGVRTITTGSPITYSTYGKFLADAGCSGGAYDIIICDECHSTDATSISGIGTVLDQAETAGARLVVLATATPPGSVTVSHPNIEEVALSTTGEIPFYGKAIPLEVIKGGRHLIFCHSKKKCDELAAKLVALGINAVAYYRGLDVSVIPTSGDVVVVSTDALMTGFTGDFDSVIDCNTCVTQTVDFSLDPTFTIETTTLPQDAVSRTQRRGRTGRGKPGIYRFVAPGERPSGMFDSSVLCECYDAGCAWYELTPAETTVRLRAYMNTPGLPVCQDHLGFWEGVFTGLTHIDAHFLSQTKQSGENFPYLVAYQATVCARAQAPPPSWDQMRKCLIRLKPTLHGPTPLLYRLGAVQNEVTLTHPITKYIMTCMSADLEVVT
# T2 sequence (P27958 1027-1711 C1454S/C1711G, one chain of several): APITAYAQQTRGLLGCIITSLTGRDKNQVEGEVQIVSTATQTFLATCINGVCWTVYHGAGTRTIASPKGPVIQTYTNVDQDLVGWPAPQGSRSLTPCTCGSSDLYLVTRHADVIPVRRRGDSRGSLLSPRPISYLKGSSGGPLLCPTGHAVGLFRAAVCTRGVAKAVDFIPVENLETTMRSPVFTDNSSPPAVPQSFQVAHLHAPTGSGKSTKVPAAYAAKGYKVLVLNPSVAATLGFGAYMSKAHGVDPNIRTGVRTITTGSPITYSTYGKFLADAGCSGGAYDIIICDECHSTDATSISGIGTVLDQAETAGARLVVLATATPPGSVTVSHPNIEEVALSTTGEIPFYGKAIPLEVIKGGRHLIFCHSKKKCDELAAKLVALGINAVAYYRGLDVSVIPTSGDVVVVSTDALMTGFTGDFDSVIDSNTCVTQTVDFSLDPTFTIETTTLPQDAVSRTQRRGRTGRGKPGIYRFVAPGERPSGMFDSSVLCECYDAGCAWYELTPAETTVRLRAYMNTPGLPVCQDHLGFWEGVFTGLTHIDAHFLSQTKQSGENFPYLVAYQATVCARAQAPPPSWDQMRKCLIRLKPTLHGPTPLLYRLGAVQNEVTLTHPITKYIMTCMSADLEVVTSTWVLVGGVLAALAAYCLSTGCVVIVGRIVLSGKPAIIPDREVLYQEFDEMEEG
structure (smiles),measurement,setting,value
C=CC1CC1(NC(=O)[C@@H]1C[C@@H](NC(=O)c2cc(-c3ccccc3)nc3ccccc23)CN1C(=O)[C@@H](NC(=O)CC1CC1)C(C)(C)C)C(=O)NS(=O)(=O)C1CC1 (some centres unmarked) [Compound 9],IC50,[1],65000 nM
same,IC50,[2],> 100000 nM
same,IC50,[3],41 nM
same,IC50,[4],47 nM
same,IC50,[4]; read-out: IC 50 Range,< 150 nM
